One experiment has as its target sheep TAAR5 (Ovis aries, UniProt A0ACI6PZ16). Briefly: Cell-based receptor activation reporter assay (SEAP / Dual-Glo luciferase). As for the experimental part:
(§1) Fluorescence was measured with a BioTek Microplate reader.
A general note: Reporter assays use an easily measured gene product as a stand-in for the process of interest.

Another experiment concerns the target cat TAAR5 (Felis catus, UniProt A0ABI7YAE2). Described as above. As for the experimental part: as §1
The target in a further experiment is shark TAARS1b (Chiloscyllium punctatum, UniProt A0A401S5C1). The experiment is described as above. Further details: species or system bamboo shark. As for the experimental part:
as §1

The target in a further experiment is hamster TAAR5 (Mesocricetus auratus, UniProt A0A1U7QEC3). Briefly: cell-based. The source says: (§2) Next, we conducted high-throughput screening to further explore the functional properties of these aminergic receptors. We cloned 248 TAARs from 11 mammals (human, mouse, rat, guinea pig, hamster, cat, horse, rabbit, sheep, rhesus, and wild boar), two reptiles (alligator and chicken), six teleosts (zebrafish, catfish, fugu, medaka, salmon, and pufferfish), one lobed-finned fish (coelacanth), one holost fish (spotted gar), and one cartilaginous fish (bamboo shark) (fig. 2A). We also cloned eight TARLs from coelacanth, zebrafish, catfish, fugu, medaka, spotted gar, shark, and 28 TARLLs from sea lamprey (supplementary table S2, Supplementary Material online). In addition, we cloned two HTR4s from mouse and zebrafish. We then challenged all of the cloned receptors with a ligand library comprised 97 amines at 100 µM.
Sequence of hamster TAAR5 (A0A1U7QEC3 entry or part of it): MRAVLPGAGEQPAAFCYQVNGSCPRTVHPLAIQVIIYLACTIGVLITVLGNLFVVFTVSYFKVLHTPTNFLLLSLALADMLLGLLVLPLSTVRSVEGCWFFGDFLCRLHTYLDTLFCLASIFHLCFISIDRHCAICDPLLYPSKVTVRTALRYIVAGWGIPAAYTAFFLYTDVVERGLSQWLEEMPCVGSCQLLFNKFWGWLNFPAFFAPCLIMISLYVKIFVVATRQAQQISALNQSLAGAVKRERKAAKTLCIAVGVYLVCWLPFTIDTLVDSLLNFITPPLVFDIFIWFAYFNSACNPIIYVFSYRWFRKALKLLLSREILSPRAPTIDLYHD
(§3) HEK293 cells were plated onto poly-D-lysine (Sigma–Aldrich) preincubated 96-well plates (Corning) with 50 µl growth medium (DMEM medium with 10% BCS and 5% penicillin–streptomycin solution) and cultured for 18–24 h. Receptor plasmids were cotransfected with Cre-SEAP plasmid using polyethylenimine (PEI, Polysciences) and incubated at 37 °C with 5% CO2. About 4 h later, cells were incubated with or without test compounds diluted in serum-free DMEM for 48 h, followed by incubating for 2 h at 70 °C. After returning to room temperature, 50 µl supernatant from each well was incubated with an equal volume of 0.3 mM 4-methylumbelliferyl phosphate (4-MUP, Sigma–Aldrich) in 2 M diethanolamine bicarbonate (Sigma–Aldrich), pH 10.0 for 15 min. Fluorescence was measured with a BioTek Microplate reader.
(§4) Hana3A cells were plated onto 96-well plates (Greiner bio-one) with 50 µl growth medium (DMEM medium with 10% BCS and 5% penicillin–streptomycin solution with puromycin) and cultured at 37 °C with 5% CO2. After 18–24 h, cells in each well were cotransfected with 50 ng receptor plasmid, 10 ng CRE-Luc, 10 ng pRL-SV40, and 10 ng mRTPs using Lipofectamine 2000 (Invitrogen), and incubated for 18 h. Medium was then replaced by 25 µl CD293 (Invitrogen) containing 1% glutamine with or without test compounds for 4 h. The chemiluminescence of firefly luciferase and renilla luciferase were measured with a Biotek Microplate reader using the Dual-Glo Luciferase Assay System (Promega).

The next experiment addresses cow TAAR5 (Bos taurus, UniProt F1MTC9). Briefly: cell-based. The note with it: EC50 (μM).
Source text: as §2, §3, §4

In a further experiment the target is T1, mouse TAAR8a (Mus musculus, UniProt Q5QD07).
T1 construct: bovine rhodopsin N-terminal 20 amino acids (Rho tag); expressed in transfected cells; host or cells: HEK293(T) (SEAP assay) or Hana3A (Dual-Glo assay)
T1 sequence (Q5QD07 whole entry): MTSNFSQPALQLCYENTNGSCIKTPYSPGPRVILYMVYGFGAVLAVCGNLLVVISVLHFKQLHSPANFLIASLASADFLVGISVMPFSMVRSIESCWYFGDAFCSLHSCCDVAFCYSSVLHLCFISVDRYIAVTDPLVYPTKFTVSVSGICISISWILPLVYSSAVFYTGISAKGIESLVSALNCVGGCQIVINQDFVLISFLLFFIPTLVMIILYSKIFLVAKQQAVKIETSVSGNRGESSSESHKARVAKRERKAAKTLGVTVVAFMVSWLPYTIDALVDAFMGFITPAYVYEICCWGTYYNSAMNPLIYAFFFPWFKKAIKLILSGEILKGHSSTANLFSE
Briefly: Cell-based receptor activation reporter assay (SEAP / Dual-Glo luciferase). Here is the method: as §1

The target in another experiment is T2, rat TAAR6 (Rattus norvegicus, UniProt Q923Y5).
T2 construct: bovine rhodopsin N-terminal 20 amino acids (Rho tag); expressed in transfected cells; host or cells: HEK293(T) (SEAP assay) or Hana3A (Dual-Glo assay)
T2 sequence (Q923Y5 whole entry): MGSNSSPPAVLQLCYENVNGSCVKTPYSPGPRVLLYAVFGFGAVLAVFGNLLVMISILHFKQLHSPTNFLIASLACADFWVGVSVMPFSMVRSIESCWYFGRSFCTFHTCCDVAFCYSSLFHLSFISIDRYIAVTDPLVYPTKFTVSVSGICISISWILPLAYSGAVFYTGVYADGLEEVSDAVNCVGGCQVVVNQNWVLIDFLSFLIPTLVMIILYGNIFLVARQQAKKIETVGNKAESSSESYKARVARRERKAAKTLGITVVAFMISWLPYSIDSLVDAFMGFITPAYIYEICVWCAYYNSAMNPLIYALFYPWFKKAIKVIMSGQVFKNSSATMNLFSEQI
Described as above. Here is the method:
as §1

The next experiment has as its target T3, rat TAAR8a (Rattus norvegicus, UniProt Q923X9).
T3 construct: bovine rhodopsin N-terminal 20 amino acids (Rho tag); expressed in transfected cells; host or cells: HEK293(T) (SEAP assay) or Hana3A (Dual-Glo assay)
Described as above. Here is the method:
as §1

The target of a further experiment is T4, rat TAAR9 (Rattus norvegicus, UniProt Q923Y6).
T4 construct: bovine rhodopsin N-terminal 20 amino acids (Rho tag); expressed in transfected cells; host or cells: HEK293(T) (SEAP assay) or Hana3A (Dual-Glo assay)
T4 sequence (Q923Y6 1-338): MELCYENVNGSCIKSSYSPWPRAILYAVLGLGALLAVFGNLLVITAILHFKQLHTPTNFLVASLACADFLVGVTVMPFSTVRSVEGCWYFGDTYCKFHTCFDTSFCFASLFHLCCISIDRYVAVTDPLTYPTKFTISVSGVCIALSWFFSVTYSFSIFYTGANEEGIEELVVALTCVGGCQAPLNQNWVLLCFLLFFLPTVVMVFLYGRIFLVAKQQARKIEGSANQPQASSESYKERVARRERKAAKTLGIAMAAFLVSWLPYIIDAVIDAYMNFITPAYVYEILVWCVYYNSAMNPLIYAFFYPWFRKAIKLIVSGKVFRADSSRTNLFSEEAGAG
Described as above. As for the experimental part:
as §1

The target of a further experiment is wild boar TAAR7 (Sus scrofa, UniProt F1S3Q1). The description is as above. As for the experimental part:
as §1

A further experiment deals with T5, rat TAAR7a (Rattus norvegicus, UniProt Q923Y2).
T5 construct: bovine rhodopsin N-terminal 20 amino acids (Rho tag); expressed in transfected cells; host or cells: HEK293(T) (SEAP assay) or Hana3A (Dual-Glo assay)
T5 sequence (Q923Y2 whole entry): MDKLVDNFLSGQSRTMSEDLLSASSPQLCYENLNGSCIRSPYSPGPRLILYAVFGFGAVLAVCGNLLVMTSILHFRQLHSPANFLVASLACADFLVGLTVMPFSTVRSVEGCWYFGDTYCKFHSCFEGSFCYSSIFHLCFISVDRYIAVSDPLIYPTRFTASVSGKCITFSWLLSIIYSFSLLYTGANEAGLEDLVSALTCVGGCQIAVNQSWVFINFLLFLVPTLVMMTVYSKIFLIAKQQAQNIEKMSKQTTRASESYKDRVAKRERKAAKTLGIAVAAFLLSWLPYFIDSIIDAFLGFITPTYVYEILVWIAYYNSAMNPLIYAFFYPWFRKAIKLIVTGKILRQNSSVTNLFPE
The description is as above. As for the experimental part: as §1

For the next experiment, the target named is cat TAAR6b (Felis catus, UniProt A0ABI7X994). Described as above. As for the experimental part:
as §1

For the next experiment, the target named is T6, mouse TAAR6 (Mus musculus, UniProt Q5QD13).
T6 construct: bovine rhodopsin N-terminal 20 amino acids (Rho tag); expressed in transfected cells; host or cells: HEK293(T) (SEAP assay) or Hana3A (Dual-Glo assay)
T6 sequence (Q5QD13 whole entry): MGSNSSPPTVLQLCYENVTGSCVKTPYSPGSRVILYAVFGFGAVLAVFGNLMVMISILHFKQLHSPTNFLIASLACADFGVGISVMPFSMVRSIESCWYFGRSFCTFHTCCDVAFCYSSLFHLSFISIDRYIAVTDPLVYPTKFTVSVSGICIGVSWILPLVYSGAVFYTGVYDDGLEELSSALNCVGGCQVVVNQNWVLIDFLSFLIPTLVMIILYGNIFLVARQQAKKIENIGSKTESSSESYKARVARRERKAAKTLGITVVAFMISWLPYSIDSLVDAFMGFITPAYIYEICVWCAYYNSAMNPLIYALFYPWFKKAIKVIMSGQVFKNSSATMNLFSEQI
The description is as above. Here is the method:
as §1

Another experiment deals with rabbit TAAR8b (Oryctolagus cuniculus, UniProt G1SRV7). Described as above. Here is the method:
as §1

Another experiment has as its target T7, mouse TAAR7d (Mus musculus, UniProt Q5QD10).
T7 construct: bovine rhodopsin N-terminal 20 amino acids (Rho tag); expressed in transfected cells; host or cells: HEK293(T) (SEAP assay) or Hana3A (Dual-Glo assay)
The description is as above. As for the experimental part: as §1

“And” between values parts separate entries of the source, which are not always exact repeats. Equal entries are not always repeated.

As a reminder, the EC50 is the midpoint of the concentration-response curve. Low values mean a more potent agent, high ones a less potent agent.

Sequence of wild boar TAAR7 (F1S3Q1 entry or part of it): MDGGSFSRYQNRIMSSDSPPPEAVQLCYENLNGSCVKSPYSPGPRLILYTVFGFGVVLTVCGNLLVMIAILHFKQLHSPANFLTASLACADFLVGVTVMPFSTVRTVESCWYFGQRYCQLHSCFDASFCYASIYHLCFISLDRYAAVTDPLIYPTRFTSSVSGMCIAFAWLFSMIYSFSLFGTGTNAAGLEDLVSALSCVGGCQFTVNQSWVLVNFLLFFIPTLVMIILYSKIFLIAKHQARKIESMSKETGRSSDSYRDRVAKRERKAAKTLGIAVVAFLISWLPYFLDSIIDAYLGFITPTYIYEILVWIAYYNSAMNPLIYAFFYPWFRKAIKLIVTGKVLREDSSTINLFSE
Sequence of cow TAAR5 (F1MTC9 entry or part of it): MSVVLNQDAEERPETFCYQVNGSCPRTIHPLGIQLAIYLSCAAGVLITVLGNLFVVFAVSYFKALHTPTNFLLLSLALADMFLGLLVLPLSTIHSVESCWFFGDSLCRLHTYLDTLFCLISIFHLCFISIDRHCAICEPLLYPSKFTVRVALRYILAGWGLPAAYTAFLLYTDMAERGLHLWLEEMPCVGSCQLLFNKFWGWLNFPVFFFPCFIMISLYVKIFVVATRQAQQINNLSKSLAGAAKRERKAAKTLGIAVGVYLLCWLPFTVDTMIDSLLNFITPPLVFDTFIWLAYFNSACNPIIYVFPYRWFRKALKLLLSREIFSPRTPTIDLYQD
Sequence of sheep TAAR5 (A0ACI6PZ16 entry or part of it): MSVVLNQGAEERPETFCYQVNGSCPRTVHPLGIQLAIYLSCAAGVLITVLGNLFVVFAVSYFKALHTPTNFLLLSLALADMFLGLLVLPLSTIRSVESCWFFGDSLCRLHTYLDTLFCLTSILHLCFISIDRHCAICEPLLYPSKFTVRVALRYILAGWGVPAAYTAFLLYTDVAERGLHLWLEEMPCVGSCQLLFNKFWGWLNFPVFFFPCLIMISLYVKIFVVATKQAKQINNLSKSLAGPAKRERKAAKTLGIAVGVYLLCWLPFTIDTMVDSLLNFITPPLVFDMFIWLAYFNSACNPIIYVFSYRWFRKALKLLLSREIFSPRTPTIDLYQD
Sequence of cat TAAR6b (A0ABI7X994 entry or part of it): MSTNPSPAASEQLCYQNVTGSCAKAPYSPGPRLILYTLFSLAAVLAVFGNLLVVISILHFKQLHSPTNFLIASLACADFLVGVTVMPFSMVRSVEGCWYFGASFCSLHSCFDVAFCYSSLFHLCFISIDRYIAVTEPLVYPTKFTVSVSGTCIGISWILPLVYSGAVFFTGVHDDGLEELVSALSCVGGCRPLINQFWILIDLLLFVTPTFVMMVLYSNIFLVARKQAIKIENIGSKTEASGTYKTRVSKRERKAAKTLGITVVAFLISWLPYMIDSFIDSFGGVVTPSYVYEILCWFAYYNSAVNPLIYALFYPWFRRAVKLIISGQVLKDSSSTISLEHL
Sequence of rabbit TAAR8b (G1SRV7 entry or part of it): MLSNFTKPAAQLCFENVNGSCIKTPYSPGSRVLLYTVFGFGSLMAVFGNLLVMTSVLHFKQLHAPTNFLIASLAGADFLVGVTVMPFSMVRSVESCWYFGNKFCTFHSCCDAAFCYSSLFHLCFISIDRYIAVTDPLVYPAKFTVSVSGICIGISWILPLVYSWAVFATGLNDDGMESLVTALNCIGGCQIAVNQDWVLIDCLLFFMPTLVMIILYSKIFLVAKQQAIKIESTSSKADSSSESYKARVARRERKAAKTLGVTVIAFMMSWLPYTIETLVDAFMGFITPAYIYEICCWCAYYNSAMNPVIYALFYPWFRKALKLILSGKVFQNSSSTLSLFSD
Sequence of shark TAARS1b (A0A401S5C1 entry or part of it): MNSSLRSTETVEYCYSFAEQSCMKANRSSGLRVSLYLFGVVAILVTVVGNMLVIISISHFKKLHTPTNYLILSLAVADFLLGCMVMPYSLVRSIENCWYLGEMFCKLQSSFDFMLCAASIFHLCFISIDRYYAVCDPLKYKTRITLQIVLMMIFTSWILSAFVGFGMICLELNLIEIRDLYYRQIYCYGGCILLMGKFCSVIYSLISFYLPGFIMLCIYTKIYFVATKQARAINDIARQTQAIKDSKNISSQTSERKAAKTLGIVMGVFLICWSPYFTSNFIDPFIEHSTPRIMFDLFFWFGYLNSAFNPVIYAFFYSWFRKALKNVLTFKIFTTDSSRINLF
Sequence of cat TAAR5 (A0ABI7YAE2 entry or part of it): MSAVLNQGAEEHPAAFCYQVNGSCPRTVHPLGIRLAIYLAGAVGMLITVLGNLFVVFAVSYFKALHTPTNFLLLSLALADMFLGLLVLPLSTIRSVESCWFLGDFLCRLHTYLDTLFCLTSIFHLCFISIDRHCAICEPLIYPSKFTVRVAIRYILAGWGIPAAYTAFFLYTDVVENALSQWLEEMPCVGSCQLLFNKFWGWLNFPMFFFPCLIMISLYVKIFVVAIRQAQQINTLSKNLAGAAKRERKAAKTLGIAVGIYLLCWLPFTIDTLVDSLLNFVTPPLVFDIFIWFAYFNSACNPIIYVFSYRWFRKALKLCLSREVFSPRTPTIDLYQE
T7 sequence (Q5QD10 whole entry): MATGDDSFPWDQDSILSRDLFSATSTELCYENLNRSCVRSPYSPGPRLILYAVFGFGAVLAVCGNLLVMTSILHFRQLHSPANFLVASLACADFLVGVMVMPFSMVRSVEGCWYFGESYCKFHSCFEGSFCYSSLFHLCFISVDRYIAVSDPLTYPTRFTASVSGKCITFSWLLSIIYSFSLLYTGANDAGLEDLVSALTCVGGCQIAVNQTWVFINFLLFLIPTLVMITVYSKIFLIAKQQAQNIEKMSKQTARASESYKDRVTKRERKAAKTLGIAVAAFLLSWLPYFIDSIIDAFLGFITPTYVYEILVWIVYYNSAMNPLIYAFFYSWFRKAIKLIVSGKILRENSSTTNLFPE
T3 sequence (Q923X9 whole entry): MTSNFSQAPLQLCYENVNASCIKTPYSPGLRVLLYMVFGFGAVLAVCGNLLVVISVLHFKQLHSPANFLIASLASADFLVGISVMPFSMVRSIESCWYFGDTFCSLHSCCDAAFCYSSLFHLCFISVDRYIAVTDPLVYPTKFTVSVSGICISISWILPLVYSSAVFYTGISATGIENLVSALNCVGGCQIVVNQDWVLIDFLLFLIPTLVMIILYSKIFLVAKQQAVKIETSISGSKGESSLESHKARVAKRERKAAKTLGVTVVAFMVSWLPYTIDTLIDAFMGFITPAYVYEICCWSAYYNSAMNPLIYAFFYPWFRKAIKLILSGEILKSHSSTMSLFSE

Take `CN(C)C` [Trimethylamine, trimethylamine]: the EC50 was 500 µM and ~500 µM on sheep TAAR5; 6.9 µM at cat TAAR5; 1.4 µM on shark TAARS1b; 2.3 µM on hamster TAAR5; 300 µM and ~300 µM at cow TAAR5.
Take `C1CCNCC1` [Piperidine, piperidine]: the EC50 at mouse TAAR8a was around 300 µM.
In the case of `CN(C)C1CCCCC1` [N,N-dimethylcyclohexylamine], the concentration giving a half-maximal response (EC50) is around 50 µM at rat TAAR6; 27.6 µM on rat TAAR8a; around 30 µM on rat TAAR9; 50 µM and ~50 µM on wild boar TAAR7; 49.5 µM on rat TAAR7a; 101 µM on cat TAAR6b. Also, the concentration for a half-maximal effect (EC50) was around 50 µM at mouse TAAR6, around 50 µM on rabbit TAAR8b and 107 µM on mouse TAAR7d.

The record behind these values is PMC8890504, “Evolution of Brain-Expressed Biogenic Amine Receptors into Olfactory Trace Amine-Associated Receptors” (Molecular Biology and Evolution, 2022).
